In patent US4250259A, “Microbiological production of ketones from C3 -C6 secondary alcohols” (priority 1979, dated 1981):
Like-named read-outs stand apart in the source and are kept apart here.

Experiments:
[1] = tested on: secondary alcohol dehydrogenase (SADH), cell-free soluble extract; details: Growth Substrate CH4
Experimental: (§1) To prepare the cell-free secondary alcohol dehydrogenase (SADH) system, the washed cells were disrupted with a Wave Energy Ultrasonic Oscillator, Model W201 (Wave Energy System, Inc., Newtown, Pa.) and centrifuged at 20,000×g. for 30 minutes. […] The enzyme activity was measured with a fluorescence spectrophotometer (Perkin Elmer, Model MPF 44A) by following the formation of reduced NAD (EX 340 nm, Em 460 nm). The formation of reduced NAD was also followed with an absorption spectrophotometer at 340 nm. The assay system (3 ml.) contained: potassium phosphate buffer pH 7.0; 150 μmol.; NAD 1 μmol.; a given amount of enzyme preparation; and secondary alcohol 10 μmol. The reaction was started by the addition of substrate. One unit of enzyme activity represents the reduction of one μmole NAD per minute. Protein concentrations were determined by the Lowry method (J. Biol. Chem., 193: 255-275 (1951)).
(§2) The experimental procedure for the tests reported in Table VIII were as follows: 1 mg protein of crude extract was added into a 0.5 ml. 0.05 M phosphate buffer (pH 7.0) in a 10-ml. vial. […] The reaction mixture was incubated at 30° C. on a water bath. A 3 μl sample was removed with a syringe at 15 min. of incubation and was assayed with g.l.c. Catalytic activity was also assayed by fluorescence spectrophotometry.

[2] = tested on: secondary alcohol dehydrogenase (SADH), cell-free soluble extract; details: Growth Substrate CH4; remark: listed apart in the source
Experimental: as §1, §2

[3] = tested on: secondary alcohol dehydrogenase (SADH), cell-free soluble extract; details: Growth Substrate CH3 OH
Experimental: as §1, §2

[4] = tested on: secondary alcohol dehydrogenase (SADH), cell-free soluble extract; details: Growth Substrate CH3 OH; remark: listed apart in the source
Experimental: as §1, §2

[5] = tested on: secondary alcohol dehydrogenase (SADH), cell-free soluble extract; details: Growth Substrate CH4; remark: listed apart in the source
Experimental: as §1, §2

[6] = tested on: secondary alcohol dehydrogenase, crude extracts; details: 2-butanol as a substrate; extracts of methanol-grown yeast
Experimental: (§3) Cell suspensions (2 g. wet weight) of packed cells in 10 ml. of 50 mM sodium phosphate buffer, pH 7.0 at 4° C. were disrupted by sonication with a Megason ultrasonic disintegration. The sonicated cell suspensions were centrifuged for 15 minutes at 30,000×g. The supernantant liquid was termed the crude extracts.
(§4) Secondary alcohol dehydrogenase activity was measured spectrophotometrically at 340 nm with a NAD^+ as an electron acceptor. The reaction mixture, in a total 3.0 ml., contained 50 mM phosphate buffer, pH 8.0, 5 μmoles NAD^+, crude extracts, and substrate. The reactions were started by addition of 100 μl of 0.1 M substrate and the rate of NAD^+ reduction was measured. Protein concentration was determined by the method of Lowry et al.
(§5) Oxidation of secondary alcohols were also estimated spectrophotometrically by measuring the reduction of NAD^+. […] NRRL Y-11,328 Torulopsis sp.

[7] = tested on: secondary alcohol dehydrogenase, crude extracts; details: 2-butanol as a substrate; extracts of methanol-grown yeast; remark: listed apart in the source
Experimental: as §3, §4, §5

[8] = tested on: secondary alcohol dehydrogenase, crude extracts; details: 2-butanol as a substrate; extracts of methanol-grown yeast; remark: listed apart in the source
Experimental: as §3, §4, §5

[9] = tested on: secondary alcohol dehydrogenase (SADH), cell-free soluble extract; details: Growth Substrate CH3 OH; remark: listed apart in the source
Experimental: as §1, §2

[10] = tested on: Candida boidinii NRRL Y-2332; details: cell suspensions
Experimental: (§6) The cells were harvested during exponential growth by centrifugation at 12,000×g. for 15 min. The cell pellet was washed twice with 50 mM phosphate buffer, pH 7. The final pellet was resuspended in the same buffer. Cell suspensions of yeasts grown on ethanol, methylamine, and methylformate were prepared as described above using 0.4 v/v ethanol, 10 mM methylamine and 10 mM methylformate as the sole source of carbon and energy.
(§7) A 1 ml. aliquot of each washed cell suspension of yeasts grown on various carbon sources was put into 10 ml. vials at 40° C. […] The vials were then incubated at 30° C. on a rotary water bath shaker at 200 rpm. The product of oxidation of secondary alcohols was detected by gas chromatography retention time comparison and co-chromatography with authentic standard.

[11] = tested on: Hansenula anomala NRRL Y-336; details: cell suspensions
Experimental: as §6, §7

[12] = tested on: Pichia pastoris NRRL Y-55; details: cell suspensions
Experimental: as §6, §7

[13] = tested on: secondary alcohol dehydrogenase, crude extracts; details: 2-butanol as a substrate; extracts of methanol-grown yeast; remark: listed apart in the source
Experimental: as §3, §4, §5

[14] = tested on: secondary alcohol dehydrogenase (SADH), cell-free soluble extract; details: Growth Substrate CH3 OH; remark: listed apart in the source
Experimental: as §1, §2

[15] = tested on: secondary alcohol dehydrogenase (SADH), cell-free soluble extract; details: Growth Substrate CH4; remark: listed apart in the source
Experimental: as §1, §2

[16] = tested on: secondary alcohol dehydrogenase (SADH), cell-free soluble extract; details: Growth Substrate CH3 OH; remark: listed apart in the source
Experimental: as §1, §2

[17] = tested on: secondary alcohol dehydrogenase (SADH), cell-free soluble extract; details: Growth Substrate CH3 OH; remark: listed apart in the source
Experimental: as §1, §2

[18] = tested on: secondary alcohol dehydrogenase (SADH), cell-free soluble extract; details: Growth Substrate CH3 OH; remark: listed apart in the source
Experimental: as §1, §2

[19] = tested on: secondary alcohol dehydrogenase (SADH), cell-free soluble extract; details: Growth Substrate CH4; remark: listed apart in the source
Experimental: as §1, §2

[20] = tested on: secondary alcohol dehydrogenase (SADH), cell-free soluble extract; details: Growth Substrate CH3 OH; remark: listed apart in the source
Experimental: as §1, §2

[21] = tested on: cell-free extracts of strain ATCC 21439; assay: stoichiometry of production of 2-butanone from 2-butanol by cell-free extracts (Table IX); type: biochemical, Pseudomonas sp. ATCC 21,439; details: 30° C., 1.0 mg protein, 1.0 μmoles NAD, 10 μmoles 2-butanol
Experimental: The reaction mixtures 3 ml (1.0 mg protein) were incubated at 30°
^(a) Determined gas chromatographically.
^(b) Determined fluorescence spectrophotometrically.
consumption of NAD was corrected.

[22] = tested on: secondary alcohol dehydrogenase (SADH), cell-free soluble extract; details: Growth Substrate CH4; remark: listed apart in the source
Experimental: as §1, §2

[23] = tested on: secondary alcohol dehydrogenase (SADH), cell-free soluble extract; details: Growth Substrate CH3 OH; remark: listed apart in the source
Experimental: as §1, §2

[24] = tested on: secondary alcohol dehydrogenase, crude extracts; details: 2-butanol as a substrate; extracts of methanol-grown yeast; remark: listed apart in the source
Experimental: as §3, §4, §5

[25] = tested on: secondary alcohol dehydrogenase (SADH), cell-free soluble extract
Experimental: as §1, §2

[26] = tested on: secondary alcohol dehydrogenase (SADH), cell-free soluble extract; details: Growth Substrate CH4; remark: listed apart in the source
Experimental: as §1, §2

`CCC(C)O` (stereo not shown) [2-Butanol, 2-butanol] was tested. Which “Conversion Rate, 2-butanol to 2-butanone” value [1] did it give?
The value was 1.2 nmoles/min/mg protein.

And the “Conversion Rate, 2-butanol to 2-butanone” value [2]?
The value was 0.5 nmoles/min/mg protein.

What about the “Conversion Rate, 2-butanol to 2-butanone” value [3] of the same molecule?
The value was 5.0 nmoles/min/mg protein.

And the “Conversion Rate, 2-butanol to 2-butanone” value [4]?
The value was 2.0 nmoles/min/mg protein.

And the “Conversion Rate, 2-butanol to 2-butanone” value [5]?
The value was 1.4 nmoles/min/mg protein.

What about the specific activities [6] of the same molecule?
The specific activities was 105 nmoles NAD^+ reduced per min. per mg. protein.

What about the specific activities [7] of the same molecule?
Its specific activities is 78 nmoles NAD^+ reduced per min. per mg. protein.

What about the specific activities [8] of the same molecule?
Its specific activities is 62 nmoles NAD^+ reduced per min. per mg. protein.

And the “Conversion Rate, 2-butanol to 2-butanone” value [9]?
Its value is 1.5 nmoles/min/mg protein.

And the “conversion rates, 2-butanol to 2-butanone” value (“conversion rates, 2-butanol” for short) [10]?
Its value is 6.0 μ moles/hr/mg. protein.

And the “conversion rates, 2-butanol” value [11]?
The value was 5.5 μ moles/hr/mg. protein.

What about the “conversion rates, 2-butanol” value [12] of the same molecule?
The value was 5.8 μ moles/hr/mg. protein.

And the specific activities [13]?
Its specific activities is 85 nmoles NAD^+ reduced per min. per mg. protein.

What about the “Conversion Rate, 2-butanol to 2-butanone” value [14] of the same molecule?
Its value is 2.2 nmoles/min/mg protein.

And the “Conversion Rate, 2-butanol to 2-butanone” value [15]?
Its value is 1.8 nmoles/min/mg protein.

What about the “Conversion Rate, 2-butanol to 2-butanone” value [16] of the same molecule?
Its value is 3.0 nmoles/min/mg protein.

And the “Conversion Rate, 2-butanol to 2-butanone” value [17]?
Its value is 1.8 nmoles/min/mg protein.

What about the “Conversion Rate, 2-butanol to 2-butanone” value [18] of the same molecule?
Its value is 15.0 nmoles/min/mg protein.

And the “Conversion Rate, 2-butanol to 2-butanone” value [19]?
Its value is 0.8 nmoles/min/mg protein.

What about the “Conversion Rate, 2-butanol to 2-butanone” value [20] of the same molecule?
The value was 2.4 nmoles/min/mg protein.

And the “2-Butanol Consumed” value ([21]; Experiment 1: 10 min.)?
Its value is 260 nmol.

And the “2-Butanol Consumed” value ([21]; Experiment 2: 20 min.)?
The value was 530 nmol.

And the “Conversion Rate, 2-butanol to 2-butanone” value [22]?
The value was 2.6 nmoles/min/mg protein.

And the “Conversion Rate, 2-butanol to 2-butanone” value [23]?
The value was 1.6 nmoles/min/mg protein.

And the specific activities [24]?
Its specific activities is 90 nmoles NAD^+ reduced per min. per mg. protein.

And the “Conversion Rate, 2-butanol to 2-butanone” value ([25]; Growth Substrate CH3 OH)?
The value was 2.0 nmoles/min/mg protein.

And the “Conversion Rate, 2-butanol to 2-butanone” value ([25]; Growth Substrate CH4)?
Its value is 1.5 nmoles/min/mg protein.

What about the “Conversion Rate, 2-butanol to 2-butanone” value [26] of the same molecule?
The value was 2.5 nmoles/min/mg protein.
